Assays:
Colo205 (Colon) = assay: cell survival / MTT combination cytotoxicity; assay type: cell-based, human; details: Colo205; IC50 cytotoxic agent alone / IC50 combination; Compound 1 at 8x EC50 (360 nM)
K562 (Leukemia) = assay: cell survival / MTT combination cytotoxicity; assay type: cell-based, human; details: IC50 cytotoxic agent alone / IC50 combination, Compound 1 at 4x EC50 (180 nM)
[1] = system: Colo205 human colon carcinoma xenografts; assay: in vivo chemopotentiation, Colo205 xenograft; design: species or system mice
Method: Experiments 1 to 39 were conducted in mice xenografts. Experiments 40-42 were conducted in rat xenografts. Specifically, irinotecan combination studies were conducted in HT29 and Colo205. Gemcitabine combination studies were conducted in Colo205. Docetaxel combination studies were conducted in Colo205.
Gemcitabine and irinotecan are DNA directed cytotoxics known to induce checkpoint activation and subsequent S/G2M-phase arrest. […] Docetaxel is an antimitotics where recent discoveries describe a novel function for CHK1 in the mitotic checkpoint.

HT29 (Colon) = assay: cell survival / MTT combination cytotoxicity; assay type: cell-based, human; details: HT29; IC50 cytotoxic agent alone / IC50 combination; Compound 1 at 8x EC50 (360 nM)
MDA-MB-231 (Breast) = assay: cell survival / MTT combination cytotoxicity; assay type: cell-based, human; details: IC50 cytotoxic agent alone / IC50 combination, Compound 1 at 8x EC50 (360 nM)
PC-3 (Prostate) = assay: cell survival / MTT combination cytotoxicity; assay type: cell-based, human; details: PC-3; IC50 cytotoxic agent alone / IC50 combination; Compound 1 at 8x EC50 (360 nM)
[2] = Exp 1, gemcitabine 120 mg/kg IP Q3d×4, Compound 1 0 mg/kg
[3] = Exp 2, gemcitabine 120 mg/kg IP Q3d×4 + Compound 1 4 mg/kg IP Q3d×4 24 h after
[4] = Exp 3, gemcitabine 120 mg/kg IP Q3d×4 + Compound 1 8 mg/kg IP Q3d×4 24 h after
[5] = Exp 4, gemcitabine 120 mg/kg IP Q3d×4 + Compound 1 12 mg/kg IP Q3d×4 24 h after
[6] = Exp 5, gemcitabine 120 mg/kg IP Q3d×4 + Compound 1 20 mg/kg IP Q3d×4 24 h after
[7] = Exp 6, gemcitabine 120 mg/kg IP Q3d×4 + Compound 1 24 mg/kg IP Q3d×4 24 h after
[8] = Exp 7, gemcitabine 120 mg/kg IP Q3d×4 + Compound 1 40 mg/kg IP Q3d×4 24 h after

In the case of Nc1ccn([C@@H]2O[C@H](CO)[C@@H](O)C2(F)F)c(=O)n1 [Gemcitabine], the “PF50 (Potentiation Factor50)” value (Colo205 (Colon)) is reported as 11.3, the “PF50 (Potentiation Factor50)” value (K562 (Leukemia)) is reported as 5.6 and the “% TGI” value [1, 2] is reported as 58%. The “Growth delay” value [1, 2] was 8 days, the “% TGI” value [1, 3] was 58% and the “Growth delay” value [1, 3] was 8 days. For the same molecule, the “% TGI” value [1, 4] was 63%, the “% poten TGI” value [1, 4] was 12% and the “Growth delay” value [1, 4] was 8 days. For the same molecule, the “% TGI” value [1, 5] was 68%, the “% poten TGI” value [1, 5] was 23% and the “Growth delay” value [1, 5] was 8.5 days. For the same molecule, the “% TGI” value [1, 6] was 76%, the “% TTP” value [1, 6] was 17% and the “% poten TGI” value [1, 6] was 43%. For the same molecule, the “Growth delay” value [1, 6] was 12 days, the “% TGI” value [1, 7] was 81% and the “% TTP” value [1, 7] was 17%. For the same molecule, the “% poten TGI” value [1, 7] was 55%, the “Growth delay” value [1, 7] was 12 days and the “% TGI” value [1, 8] was 90%. For the same molecule, the “% TTP” value [1, 8] was 50%, the “% poten TGI” value [1, 8] was 75% and the “Growth delay” value [1, 8] was 20 days. For the same molecule, the “PF50 (Potentiation Factor50)” value (HT29 (Colon)) was 9, the “PF50 (Potentiation Factor50)” value (MDA-MB-231 (Breast)) was 3.6 and the “PF50 (Potentiation Factor50)” value (PC-3 (Prostate)) was 12.2.

Reference: patent US20090312280A1
